In US12264146B2, “Rho kinase inhibitor, method for preparing same and uses thereof” (BEIJING INCREASE INNOVATIVE DRUG CO., LTD., priority 2018, dated 2025):

What was measured:
[1] = Toxicity test on endothelial cells EA.hy926, CCK-8 cell viability; type: cell-based; settings: human, 1000~0.32 μmol/L, 5-fold dilution, read-out: IC50 of Test compound (cytotoxicity on EA.hy926 cells)
Experimental: In this test example, 31 groups, i.e., Groups 1 to 31, were set, in which Group 1 was a blank control group, Group 2 was a normal control group, Group 3 was a positive control group, and Groups 4 to 31 were test groups of the compounds of the present application. The specific test operation comprised: 100 μL of endothelial cells EA.hy926 (purchased from Suzhou Beina Chuanglian Biotechnology Co., Ltd.) with a density of 5×10^4 was added to each well of a 96-well plate, and transferred to an incubator at 37° C. with 5% CO2 and saturated humidity conditions and cultured for 24 hours, 100 μL of 2× the test compound solution prepared and diluted with DMEM medium containing 10% fetal bovine serum was added, in which the test compound added in the positive control group was Fasudil hydrochloride (purchased from Beijing Sihuan Pharmaceutical Co., Ltd., SFDA approval number H20173349) solution with different concentrations, an equal volume of DMEM medium was added in the blank control group, an equal volume of PBS buffer was added in the normal control group, and a duplicate well was set for each concentration point. After adding the test compound, the culture was continued in the incubator for 24 hours, then 20 μL of CCK-8 detection solution (purchased from Beijing Solarbio Science & Technology Co., Ltd., Cat. No. CA1210) was added to each well, interacted at 37° C. for 2.5 hours, shaken and mixed well, and then the absorbance value at 450 nm was detected.
OD values were detected, and the cell viability values of test groups of different concentrations were calculated according to the cell viability calculation formula as follows: Cell viability=(Atest group−Ablank control)/(Anormal control−Ablank control)*100%
wherein A represented absorbance value at 450 nm.
Prism6.0 was used to obtain the inhibitor concentration-viability curve and to calculate the IC50 of the test compound, the correlation coefficient R^2>0.99; the inhibitor concentration-viability curves of Fasudil hydrochloride, R-YK1601, R-YK1603, R-YK1606, R-YK1607, R-YK1610 were shown in FIGS. 1 to 6, in which the abscissa was the logarithm on base 10 of the concentration of the test compound, and the ordinate was the cell activity (i.e., cell viability).

[2] = tested on: subarachnoid hemorrhage in rats; experiment: Rat subarachnoid hemorrhage (SAH) model by intravascular puncture, Sugawara bleeding score; type: in vivo; set-up: dose or concentration left out as unconfirmed; settings: tail vein injection, 2 administrations 4 h apart, scored 24 h after first administration (Sugawara)
Experimental: Rat subarachnoid hemorrhage (SAH) model was built by intravascular puncture. After being weighed, the rats were anesthetized with sodium pentobarbital (50 mg/kg) or chloral hydrate (300 mg/kg) by intraperitoneal injection, then fixed on their back and maintained the animal's body temperature at about 37° C. The rats' neck skin was shaved for surgery, a median incision was made on the neck, and muscle and fascia were separated along the inner edge of stemocleidomastoid muscle to expose the main and bifurcation of right common carotid artery, and expose the external and internal carotid arteries.
The bifurcation of internal carotid artery was gently clamped with ophthalmic forceps, the bifurcation of the internal carotid artery and the external carotid artery was pierced with a 6-gauge syringe needle, the ophthalmic forceps holding the bifurcation of internal carotid artery was slightly loosen, and No. 3 fishing thread was used to perform a puncture at the bleeding point, the ophthalmic forceps on the internal carotid artery was loosen, and the fishing thread was inserted into skull. […] After staying for 15 seconds, the thread for puncture was completely removed, and the skin was sutured after compression to stop the bleeding. 1.6 million units of penicillin potassium (400,000 units/ml, 0.2 ml/rat) was intramuscularly injected to avoid wound infection. For the sham operation group, the thread for puncture was removed when resistance was felt without piercing the bifurcation of the anterior cerebral artery and the middle cerebral artery, while the remaining operation steps were the same as the model group. After the operation, the rats were transferred to a thermal insulation blanket, then transferred to a squirrel cage when they were basically awake, and kept normally.
In this test experimental, 32 groups were set, i.e., Groups 1 to 32, in which Group 1 was a normal control group (healthy rats), Group 2 was a sham operation control group (not modeling by puncture), Group 3 was a model control group (modeling by puncture, administrated with normal saline), Group 4 was a positive control group (modeling by puncture, administrated with fasudil hydrochloride injection), and Groups 5 to 32 were test groups of the compounds of the present application (modeling by puncture, respectively administrated with the compounds of the present application); and there were 8 animals (purchased from SPF (Beijing) Biotechnology Co., Ltd., the certificate number was SYXK (Beijing) 2016-0002) in each group, half of them were female and half of them were male. The animals were subjected to fasting for 12 to 18 hours without prohibition of drinking water before modeling. […] The rats were euthanized 24 h after the first administration, and the brains were taken. According to Sugawara's method (Reference: Sugawara T, Ayer R, Jadhav V, et al. A new grading system evaluating bleeding scale in filament perforation subarachnoid hemorrhage rat model. J Neurosci Methods. 2008, 167(2):327-34), the subarachnoid hemorrhage amounts were scored, and the scoring results were as follows: […]

Structure (SMILES)	IC50 at 24 h [1] [µM]	Cerebral hemorrhage volume score (x ± s) [2]
CC1CNCCCN1S(=O)(=O)c1cccc2c(O)ncc(C3CC3)c12 (racemic) [Compound YK1600-1, 4-cyclopropyl-5-((2-methyl-1,4-diazacycloheptan-1-yl)sulfonyl)isoquinolin-1-ol]	97.8	14.36 ± 2.53
COc1ncc(C2CC2)c2c(S(=O)(=O)N3CCCNCC3C)cccc12 (racemic) [Compound YK1600-2, 4-cyclopropyl-1-methoxy-5-((2-methyl-1,4-diazacycloheptan-1-yl)sulfonyl)isoquinoline]	85.1	14.49 ± 2.62
CC1CNCCCN1S(=O)(=O)c1cccc2c(O)nccc12 (racemic) [Compound YK1601, 5-((2-methyl-1,4-diazacycloheptan-1-yl)sulfonyl)isoquinolin-1-ol]	496	12.75 ± 2.01
COc1nccc2c(S(=O)(=O)N3CCCNCC3C)cccc12 (racemic) [Compound YK1602, 1-methoxy-5-((2-methyl-1,4-diazacycloheptan-1-yl)sulfonyl)isoquinoline]	333	12.92 ± 2.03
CC1CNCCCN1S(=O)(=O)c1cccc2cnccc12 (racemic) [Compound YK1603, 5-((2-methyl-1,4-diazacycloheptan-1-yl)sulfonyl)isoquinoline]	176	12.96 ± 1.99
CC1CNCCCN1S(=O)(=O)c1cccc2c(O)ncc(F)c12 (racemic) [Compound YK1604, 4-fluoro-5-((2-methyl-1,4-diazacycloheptan-1-yl)sulfonyl)isoquinolin-1-ol]	130	13.08 ± 1.97
COc1ncc(F)c2c(S(=O)(=O)N3CCCNCC3C)cccc12 (racemic) [Compound YK1605, 4-fluoro-1-methoxy-5-((2-methyl-1,4-diazacycloheptan-1-yl)sulfonyl)isoquinoline]	103	13.95 ± 2.02
CC1CNCCCN1S(=O)(=O)c1cccc2c(O)ncc(Cl)c12 (racemic) [Compound YK1606, 4-chloro-5-((2-methyl-1,4-diazacycloheptan-1-yl)sulfonyl)isoquinolin-1-ol]	98	13.71 ± 2.03
CCc1cnc(O)c2cccc(S(=O)(=O)N3CCCNCC3C)c12 (racemic) [Compound YK1607, 4-ethyl-5-((2-methyl-1,4-diazacycloheptan-1-yl)sulfonyl)isoquinolin-1-ol]	139	13.09 ± 2.09
O=S(=O)(c1cccc2cnccc12)N1CCCNCC1C1CC1 (racemic) [Compound YK1608, 5-((2-cyclopropyl-1,4-diazacycloheptan-1-yl)sulfonyl)isoquinoline]	165	13.98 ± 2.01
CC(C)C1CNCCCN1S(=O)(=O)c1cccc2c(O)nccc12 (racemic) [Compound YK1609, 5-((2-isopropyl-1,4-diazacycloheptan-1-yl)sulfonyl)isoquinolin-1-ol]	228	13.27 ± 1.96
CCC1CNCCCN1S(=O)(=O)c1cccc2c(OC)nccc12 (racemic) [Compound YK1610, 5-((2-ethyl-1,4-diazacycloheptan-1-yl)sulfonyl)-1-methoxyisoquinoline]	98.8	13.83 ± 2.01
CCCCC1CNCCCN1S(=O)(=O)c1cccc2c(O)nccc12 (racemic) [Compound YK1611, 5-((2-butyl-1,4-diazacycloheptan-1-yl)sulfonyl)isoquinolin-1-ol]	184	13.39 ± 2.03
COc1nccc2c(S(=O)(=O)N3CCCNCC3CCC(C)C)cccc12 (racemic) [Compound YK1612, 5-((2-isopentyl-1,4-diazacycloheptan-1-yl)sulfonyl)-1-methoxyisoquinoline]	89.6	14.05 ± 1.96
